From ChEMBL document CHEMBL3997812, “The induction of oxidative stress in cervix carcinoma cells by levoglucosenone derived 4-S-salicyl derivative and (1-4)-S-thio-disaccharides. Part 4” (2017)
The source made the active and inactive calls. No cut-off for these calls is given here.

Experiments:
HeLa [1] = assay: Effect on NQO1 mRNA expression in human HeLa cells after 4 hrs by RT-PCR method relative to control; assay type: functional
Escherichia coli [2] = assay: Induction of Escherichia coli pUC19 DNA damage assessed as increase in open circular DNA forms after 1 hr by agarose gel electrophoresis
HeLa [3] = assay: Upregulation of GPX1 mRNA expression in human HeLa cells after 4 hrs by RT-PCR method; assay type: functional, cell-based
HeLa [4] = assay: Effect on NOX4 mRNA expression in human HeLa cells after 4 hrs by RT-PCR method relative to control; assay type: functional
HeLa [5] = assay: Geno-toxicity in human HeLa cells assessed as induction of DNA damage by measuring increase in double stranded DNA breaks at 69 to 550 uM after 1 hr by neutral comet assay; assay type: functional, cell-based
HeLa [6] = assay: Effect on HMOX mRNA expression in human HeLa cells after 4 hrs by RT-PCR method relative to control; assay type: functional
HeLa [7] = assay: Induction of DNA damage in human HeLa cells assessed as increase in DNA lessions at 4 degreeC incubation for 120 mins by alkaline comet assay relative to control; assay type: functional, cell-based
HeLa [8] = assay: Effect on TXN mRNA expression in human HeLa cells after 4 hrs by RT-PCR method relative to control; assay type: functional
HeLa [9] = assay: Upregulation of CAT mRNA expression in human HeLa cells after 4 hrs by RT-PCR method; assay type: functional, cell-based
HeLa [10] = assay: Induction of nitric oxide production in human HeLa cells after 1 hr by DAF2-DA probe based fluorescence assay; assay type: functional, cell-based
HeLa [11] = assay: Effect on GPX4 mRNA expression in human HeLa cells after 4 hrs by RT-PCR method relative to control; assay type: functional
HeLa [12] = assay: Effect on SOD2 mRNA expression in human HeLa cells after 4 hrs by RT-PCR method relative to control; assay type: functional
HeLa [13] = assay: Induction of DNA damage in human HeLa cells incubated for 1 hr followed by repair incubation for 120 mins by alkaline comet assay; assay type: functional, cell-based
HeLa [14] = assay: Geno-toxicity in human HeLa cells assessed as induction of DNA damage after 1 hr by alkaline comet assay; assay type: functional, cell-based
HeLa [15] = assay: Effect on GCLM mRNA expression in human HeLa cells after 4 hrs by RT-PCR method relative to control; assay type: functional
HeLa [16] = assay: Effect on NOX5 mRNA expression in human HeLa cells after 4 hrs by RT-PCR method relative to control; assay type: functional
Escherichia coli [17] = assay: Induction of Escherichia coli pUC19 DNA damage assessed as decrease in supercoiled covalently closed circular DNA forms after 1 hr by agarose gel electrophoresis
HeLa [18] = assay: Induction of DNA damage in human HeLa cells after 1 hr in presence of antioxidant epicatechin by alkaline comet assay relative to control; assay type: functional, cell-based
HeLa [19] = assay: Induction of DNA damage in human HeLa cells assessed as increase in DNA lessions at 37 degreeC incubation for 120 mins by alkaline comet assay relative to control; assay type: functional, cell-based
HeLa [20] = assay: Geno-toxicity in human HeLa cells assessed as induction of DNA damage by measuring increase in single strand breaks after 1 hr by comet assay; assay type: functional, cell-based
Escherichia coli [21] = assay: Induction of Escherichia coli pUC19 DNA damage assessed as increase in linear DNA forms after 1 hr by agarose gel electrophoresis
HeLa [22] = assay: Induction of oxidative stress in human HeLa cells assessed as reduction in GSH level after 1 hr by MBCL probe based flow cytometry relative to control; assay type: functional; set-up: scale not given: the % may be the effect or the level left
HeLa [23] = assay: Geno-toxicity in human HeLa cells assessed as induction of DNA damage by measuring increase in incomplete excision repair sites at pH 12.1 after 1 hr by comet assay; assay type: functional, cell-based
HeLa [24] = assay: Effect on SOD1 mRNA expression in human HeLa cells after 4 hrs by RT-PCR method relative to control; assay type: functional
HeLa [25] = assay: Effect on NCOA7 mRNA expression in human HeLa cells after 4 hrs by RT-PCR method relative to control; assay type: functional
HeLa [26] = assay: Induction of DNA damage in human HeLa cells after 1 hr in presence of antioxidant vitamin E by alkaline comet assay relative to control; assay type: functional, cell-based
HeLa [27] = assay: Induction of oxidative stress in human HeLa cells assessed as reduction in thioredoxin reductase at IC50 after 14 hrs by DTNB/bradford reagent based colorimetric method; assay type: functional; set-up: scale not given: the % may be the effect or the level left
HeLa [28] = assay: Induction of ROS production in human HeLa cells after 1 hr by CM-H2DCFDA probe based fluorescence assay; assay type: functional, cell-based
HeLa [29] = assay: Geno-toxicity in human HeLa cells assessed as induction of DNA damage by measuring increase in double stranded DNA breaks at 17 to 137 uM after 1 hr by neutral comet assay; assay type: functional, cell-based
HeLa [30] = assay: Geno-toxicity in human HeLa cells assessed as induction of DNA damage by measuring increase in double stranded DNA breaks at 5.6 to 69 uM after 1 hr by neutral comet assay; assay type: functional, cell-based

In the case of `CC(=O)OC[C@H]1O[C@@H](S[C@@H]2CC(=O)[C@@H]3OC[C@H]2O3)[C@H](OC(C)=O)[C@@H](OC(C)=O)[C@H]1OC(C)=O`, the “fold change (FC)” value (HeLa [1]) is reported as 1.36, the Activity (Escherichia coli [2]) is reported as “inactive” and the Activity (HeLa [3]) is reported as “Active”. For the same compound, the “fold change (FC)” value (HeLa [4]) was 0.74, the Activity (HeLa [5]) was “inactive” and the “fold change (FC)” value (HeLa [6]) was 10.53. For the same compound, the Activity (HeLa [7]) was “inactive”, the “fold change (FC)” value (HeLa [8]) was 1.07 and the Activity (HeLa [9]) was “Active”. The Activity (HeLa [10]) was “inactive”, the “fold change (FC)” value (HeLa [11]) was 0.75 and the “fold change (FC)” value (HeLa [12]) was 1.26. For the same compound, the Activity (HeLa [13]) was “inactive”, the Activity (HeLa [14]) was “Dose-dependent effect” and the “fold change (FC)” value (HeLa [15]) was 1.77. For the same compound, the “fold change (FC)” value (HeLa [16]) was 0.68, the Activity (Escherichia coli [17]) was “inactive” and the Activity (HeLa [18]) was “inactive”. For the same compound, the Activity (HeLa [19]) was “Active”, the Activity (HeLa [20]) was “Dose-dependent effect” and the Activity (Escherichia coli [21]) was “inactive”. For the same compound, the Activity (HeLa [22]) was 60%, the Activity (HeLa [23]) was “Dose-dependent effect” and the “fold change (FC)” value (HeLa [24]) was 1.07. The “fold change (FC)” value (HeLa [25]) was 0.37, the Activity (HeLa [26]) was “inactive” and the Activity (HeLa [27]) was 9.2%. For the same compound, the Activity (HeLa [28]) was “Active”.
With `O=C1C[C@@H](S[C@@H]2O[C@H](CO)[C@@H](O)[C@H](O)[C@H]2O)[C@H]2CO[C@@H]1O2` the “fold change (FC)” value (HeLa [1]) was 1.27, the Activity (Escherichia coli [2]) was “inactive” and the Activity (HeLa [3]) was “Active”. The “fold change (FC)” value (HeLa [4]) was 0.68, the Activity (HeLa [5]) was “inactive” and the “fold change (FC)” value (HeLa [6]) was 7.29. For the same compound, the Activity (HeLa [7]) was “inactive”, the “fold change (FC)” value (HeLa [8]) was 0.94 and the Activity (HeLa [9]) was “Active”. For the same compound, the Activity (HeLa [10]) was “inactive”, the “fold change (FC)” value (HeLa [11]) was 0.56 and the “fold change (FC)” value (HeLa [12]) was 1.25. The Activity (HeLa [13]) was “inactive”, the Activity (HeLa [14]) was “Dose-dependent effect” and the “fold change (FC)” value (HeLa [15]) was 1.95. For the same compound, the “fold change (FC)” value (HeLa [16]) was 0.34, the Activity (Escherichia coli [17]) was “inactive” and the Activity (HeLa [18]) was “inactive”. For the same compound, the Activity (HeLa [19]) was “Active”, the Activity (HeLa [20]) was “Dose-dependent effect” and the Activity (Escherichia coli [21]) was “inactive”. The Activity (HeLa [22]) was “Active”, the Activity (HeLa [23]) was “Dose-dependent effect” and the “fold change (FC)” value (HeLa [24]) was 1.16. For the same compound, the “fold change (FC)” value (HeLa [25]) was 0.35, the Activity (HeLa [26]) was “inactive” and the Activity (HeLa [27]) was 3.86%. The Activity (HeLa [28]) was “Active”.
`O=C(O)c1ccccc1S[C@@H]1CC(=O)[C@@H]2OC[C@H]1O2` was tested, and the “fold change (FC)” value (HeLa [1]) was 1.61, the Activity (Escherichia coli [2]) was “inactive” and the Activity (HeLa [3]) was “Active”. For the same compound, the Activity (HeLa [29]) was “inactive”, the “fold change (FC)” value (HeLa [4]) was 1.13 and the “fold change (FC)” value (HeLa [6]) was 3.42. For the same compound, the Activity (HeLa [7]) was “inactive”, the “fold change (FC)” value (HeLa [8]) was 0.93 and the Activity (HeLa [9]) was “Active”. The Activity (HeLa [10]) was “inactive”, the “fold change (FC)” value (HeLa [11]) was 0.56 and the “fold change (FC)” value (HeLa [12]) was 1.28. For the same compound, the Activity (HeLa [13]) was “inactive”, the Activity (HeLa [14]) was “Dose-dependent effect” and the “fold change (FC)” value (HeLa [15]) was 1.56. The “fold change (FC)” value (HeLa [16]) was 0.56, the Activity (Escherichia coli [17]) was “inactive” and the Activity (HeLa [18]) was “inactive”. For the same compound, the Activity (HeLa [19]) was “Active”, the Activity (HeLa [20]) was “Dose-dependent effect” and the Activity (Escherichia coli [21]) was “inactive”. The Activity (HeLa [22]) was “Active”, the Activity (HeLa [23]) was “Dose-dependent effect” and the “fold change (FC)” value (HeLa [24]) was 1.12. The “fold change (FC)” value (HeLa [25]) was 0.51, the Activity (HeLa [26]) was “inactive” and the Activity (HeLa [27]) was 7.5%. The Activity (HeLa [28]) was “Active”.
For `CC(=O)OC[C@H]1O[C@@H](S[C@@H]2CC(=O)[C@@H]3OC[C@H]2O3)[C@H](OC(C)=O)[C@@H](OC(C)=O)[C@@H]1OC(C)=O`, the “fold change (FC)” value (HeLa [1]) was 1.34, the Activity (Escherichia coli [2]) was “inactive” and the Activity (HeLa [3]) was “Active”. The “fold change (FC)” value (HeLa [4]) was 0.58, the “fold change (FC)” value (HeLa [6]) was 20.29 and the Activity (HeLa [7]) was “inactive”. For the same compound, the “fold change (FC)” value (HeLa [8]) was 0.76, the Activity (HeLa [9]) was “Active” and the Activity (HeLa [10]) was “inactive”. For the same compound, the “fold change (FC)” value (HeLa [11]) was 1.15, the “fold change (FC)” value (HeLa [12]) was 1.56 and the Activity (HeLa [13]) was “inactive”. The Activity (HeLa [14]) was “Dose-dependent effect”, the “fold change (FC)” value (HeLa [15]) was 2.21 and the “fold change (FC)” value (HeLa [16]) was 0.53. For the same compound, the Activity (HeLa [30]) was “inactive”, the Activity (Escherichia coli [17]) was “inactive” and the Activity (HeLa [18]) was “inactive”. For the same compound, the Activity (HeLa [19]) was “Active”, the Activity (HeLa [20]) was “Dose-dependent effect” and the Activity (Escherichia coli [21]) was “inactive”. For the same compound, the Activity (HeLa [22]) was 20%, the Activity (HeLa [23]) was “Dose-dependent effect” and the “fold change (FC)” value (HeLa [24]) was 1.18. For the same compound, the “fold change (FC)” value (HeLa [25]) was 0.43, the Activity (HeLa [26]) was “inactive” and the Activity (HeLa [27]) was 18.3%. For the same compound, the Activity (HeLa [28]) was “Active”.
